Assay results taken from PubChem BioAssay AID1963981 (Molecular Pharmacology Branch, DTP, NCI, 2024).

Test system: 354836-022-R-J1-PDC multicell spheroid viability
Assay: Anticancer human tumor 354836-022-R-J1-PDC patient-derived head and neck squamous cell carcinoma cell line growth inhibition [PI3K]
Settings: for IC50: curve of first compound; for viability, T/C: stronger effect = lower value
Procedure, shortened: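 Combination activity was assessed by viability in multicellular tumor spheroids carrying HUVEC and MSC components. Agents were tested with PI3K inhibitors from a Cmax-based top dose (or 10 microM) downward in half-log increments.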

[1] = second compound 0.0316 µM, first compound 0.0316 µM
[2] = second compound 0.0316 µM, first compound 0.1 µM
[3] = second compound 0.0316 µM, first compound 0.316 µM
[4] = second compound 0.0316 µM, first compound 1 µM
[5] = second compound 0.0316 µM, first compound 3.16 µM
[6] = second compound 0.0316 µM, first compound 10 µM
[7] = second compound 0.1 µM, first compound 0.0316 µM
[8] = second compound 0.1 µM, first compound 0.1 µM
[9] = second compound 0.1 µM, first compound 0.316 µM
[10] = second compound 0.1 µM, first compound 1 µM
[11] = second compound 0.1 µM, first compound 3.16 µM
[12] = second compound 0.1 µM, first compound 10 µM
[13] = second compound 0.316 µM, first compound 0.0316 µM
[14] = second compound 0.316 µM, first compound 0.1 µM
[15] = second compound 0.316 µM, first compound 0.316 µM
[16] = second compound 0.316 µM, first compound 1 µM
[17] = second compound 0.316 µM, first compound 3.16 µM
[18] = second compound 0.316 µM, first compound 10 µM
[19] = second compound 1 µM, first compound 0.0316 µM
[20] = second compound 1 µM, first compound 0.1 µM
[21] = second compound 1 µM, first compound 0.316 µM
[22] = second compound 1 µM, first compound 1 µM
[23] = second compound 1 µM, first compound 3.16 µM
[24] = second compound 1 µM, first compound 10 µM
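Note: spheroids exposed to agents for seven days before the viability read.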

Structure (SMILES): CC1(C)CCC(Nc2ncc(C(F)(F)F)c(-c3c[nH]c4c(P(C)(C)=O)c(C#N)ccc34)n2)CN1 (stereo unspecified) + CC(Nc1ccc2c(c1)OCCn1cc(N3C(=O)OCC3C(F)F)nc1-2)C(N)=O
- IC50 (second compound 0.00316 µM): < 31.6 nM
- IC50 (second compound 0.01 µM): < 31.6 nM
- IC50 (second compound 0.0316 µM): < 31.6 nM
- IC50 (second compound 0.1 µM): < 31.6 nM
- IC50 (second compound 0.316 µM): < 31.6 nM
- IC50 (second compound 1 µM): < 31.6 nM
- viability, T/C (second compound 0.00316 µM, first compound 0.0316 µM): 21.5%
- viability, T/C (second compound 0.00316 µM, first compound 0.1 µM): 18.9%
- viability, T/C (second compound 0.00316 µM, first compound 0.316 µM): 21.4%
- viability, T/C (second compound 0.00316 µM, first compound 1 µM): 22.9%
- viability, T/C (second compound 0.00316 µM, first compound 3.16 µM): 32.5%
- viability, T/C (second compound 0.00316 µM, first compound 10 µM): 2.76%
- viability, T/C (second compound 0.01 µM, first compound 0.0316 µM): 28.1%
- viability, T/C (second compound 0.01 µM, first compound 0.1 µM): 18.5%
- viability, T/C (second compound 0.01 µM, first compound 0.316 µM): 27.8%
- viability, T/C (second compound 0.01 µM, first compound 1 µM): 25.4%
- viability, T/C (second compound 0.01 µM, first compound 3.16 µM): 32.9%
- viability, T/C (second compound 0.01 µM, first compound 10 µM): 2.41%
- viability, T/C [1]: 16.7%
- viability, T/C [2]: 21.1%
- viability, T/C [3]: 16.9%
- viability, T/C [4]: 19%
- viability, T/C [5]: 23.6%
- viability, T/C [6]: 1.33%
- viability, T/C [7]: 18.6%
- viability, T/C [8]: 15.8%
- viability, T/C [9]: 22.1%
- viability, T/C [10]: 16.2%
- viability, T/C [11]: 22.3%
- viability, T/C [12]: 1.47%
- viability, T/C [13]: 12.8%
- viability, T/C [14]: 15.8%
- viability, T/C [15]: 14.7%
- viability, T/C [16]: 19.9%
- viability, T/C [17]: 18.3%
- viability, T/C [18]: 1.99%
- viability, T/C [19]: 14.1%
- viability, T/C [20]: 13%
- viability, T/C [21]: 14.1%
- viability, T/C [22]: 16.6%
- viability, T/C [23]: 19.3%
- viability, T/C [24]: 1.51%

Structure (SMILES): CNC(=O)c1ccc(N2C(=S)N(c3ccc(C#N)c(C(F)(F)F)c3)C(=O)C2(C)C)cc1F + CC(Nc1ncnc2nc[nH]c12)c1cc2cccc(Cl)c2c(=O)n1-c1ccccc1
- IC50 (second compound 0.0316 µM): > 10000 nM
- IC50 (second compound 0.1 µM): > 10000 nM
- IC50 (second compound 0.316 µM): > 10000 nM
- IC50 (second compound 1 µM): > 10000 nM
- IC50 (second compound 3.16 µM): > 10000 nM
- IC50 (second compound 10 µM): > 10000 nM
- viability, T/C [1]: 97.4%
- viability, T/C [2]: 99.1%
- viability, T/C [3]: 92.9%
- viability, T/C [4]: 93%
- viability, T/C [5]: 109%
- viability, T/C [6]: 95.8%
- viability, T/C [7]: 95.2%
- viability, T/C [8]: 113%
- viability, T/C [9]: 109%
- viability, T/C [10]: 104%
- viability, T/C [11]: 94.4%
- viability, T/C [12]: 93.8%
- viability, T/C [13]: 100%
- viability, T/C [14]: 97.8%
- viability, T/C [15]: 97.6%
- viability, T/C [16]: 109%
- viability, T/C [17]: 105%
- viability, T/C [18]: 91.5%
- viability, T/C [19]: 97%
- viability, T/C [20]: 92.4%
- viability, T/C [21]: 95.9%
- viability, T/C [22]: 117%
- viability, T/C [23]: 93.6%
- viability, T/C [24]: 95%
- viability, T/C (second compound 3.16 µM, first compound 0.0316 µM): 105%
- viability, T/C (second compound 3.16 µM, first compound 0.1 µM): 106%
- viability, T/C (second compound 3.16 µM, first compound 0.316 µM): 105%
- viability, T/C (second compound 3.16 µM, first compound 1 µM): 108%
- viability, T/C (second compound 3.16 µM, first compound 3.16 µM): 85.2%
- viability, T/C (second compound 3.16 µM, first compound 10 µM): 95.5%
- viability, T/C (second compound 10 µM, first compound 0.0316 µM): 89.3%
- viability, T/C (second compound 10 µM, first compound 0.1 µM): 86.5%
- viability, T/C (second compound 10 µM, first compound 0.316 µM): 94.5%
- viability, T/C (second compound 10 µM, first compound 1 µM): 97%
- viability, T/C (second compound 10 µM, first compound 3.16 µM): 95.3%
- viability, T/C (second compound 10 µM, first compound 10 µM): 86.6%

Structure (SMILES): Cn1cnc2c(F)c(Nc3ccc(Br)cc3Cl)c(C(=O)NOCCO)cc21 + CC(Nc1ncnc2nc[nH]c12)c1cc2cccc(Cl)c2c(=O)n1-c1ccccc1
- IC50 (second compound 0.0316 µM): > 3000 nM
- IC50 (second compound 0.1 µM): 2650 nM
- IC50 (second compound 0.316 µM): 2670 nM
- IC50 (second compound 1 µM): > 3000 nM
- IC50 (second compound 3.16 µM): > 3000 nM
- IC50 (second compound 10 µM): > 3000 nM
- viability, T/C (second compound 0.0316 µM, first compound 0.00949 µM): 94.3%
- viability, T/C (second compound 0.0316 µM, first compound 0.03 µM): 90.4%
- viability, T/C (second compound 0.0316 µM, first compound 0.0949 µM): 87.4%
- viability, T/C (second compound 0.0316 µM, first compound 0.3 µM): 71.9%
- viability, T/C (second compound 0.0316 µM, first compound 0.949 µM): 69.4%
- viability, T/C (second compound 0.0316 µM, first compound 3 µM): 49.4%
- viability, T/C (second compound 0.1 µM, first compound 0.00949 µM): 89.9%
- viability, T/C (second compound 0.1 µM, first compound 0.03 µM): 80.4%
- viability, T/C (second compound 0.1 µM, first compound 0.0949 µM): 70.3%
- viability, T/C (second compound 0.1 µM, first compound 0.3 µM): 81.3%
- viability, T/C (second compound 0.1 µM, first compound 0.949 µM): 64.6%
- viability, T/C (second compound 0.1 µM, first compound 3 µM): 47.7%
- viability, T/C (second compound 0.316 µM, first compound 0.00949 µM): 89.7%
- viability, T/C (second compound 0.316 µM, first compound 0.03 µM): 83.9%
- viability, T/C (second compound 0.316 µM, first compound 0.0949 µM): 94.2%
- viability, T/C (second compound 0.316 µM, first compound 0.3 µM): 72.1%
- viability, T/C (second compound 0.316 µM, first compound 0.949 µM): 74.8%
- viability, T/C (second compound 0.316 µM, first compound 3 µM): 46.6%
- viability, T/C (second compound 1 µM, first compound 0.00949 µM): 90.5%
- viability, T/C (second compound 1 µM, first compound 0.03 µM): 83.8%
- viability, T/C (second compound 1 µM, first compound 0.0949 µM): 79.6%
- viability, T/C (second compound 1 µM, first compound 0.3 µM): 81.2%
- viability, T/C (second compound 1 µM, first compound 0.949 µM): 74.5%
- viability, T/C (second compound 1 µM, first compound 3 µM): 55.6%
- viability, T/C (second compound 3.16 µM, first compound 0.00949 µM): 99.5%
- viability, T/C (second compound 3.16 µM, first compound 0.03 µM): 86.9%
- viability, T/C (second compound 3.16 µM, first compound 0.0949 µM): 71.1%
- viability, T/C (second compound 3.16 µM, first compound 0.3 µM): 88.8%
- viability, T/C (second compound 3.16 µM, first compound 0.949 µM): 81%
- viability, T/C (second compound 3.16 µM, first compound 3 µM): 63.5%
- viability, T/C (second compound 10 µM, first compound 0.00949 µM): 85.5%
- viability, T/C (second compound 10 µM, first compound 0.03 µM): 89.2%
- viability, T/C (second compound 10 µM, first compound 0.0949 µM): 87.1%
- viability, T/C (second compound 10 µM, first compound 0.3 µM): 77.1%
- viability, T/C (second compound 10 µM, first compound 0.949 µM): 68.2%
- viability, T/C (second compound 10 µM, first compound 3 µM): 54.8%
